Test results reported in US20230399622A1, “THERAPY FOR DEGENERATIVE DISEASE AND TISSUE DAMAGE” (FUNDACIÓ CENTRE DE REGULACIÓ GENÒMICA, priority 2020, published 2023).

How the values were obtained:
MSCs [1] = assay: Transwell chemotactic assay of MSCs with chemokine receptor antagonists, media conditioned by NMDA-damaged retina; assay type: cell-based, mouse; details: towards media conditioned by NMDA-damaged (24 hpi) retina; vs vehicle DMSO; working concentrations of Table 2
Method: (§1) Chemotactic assays were performed using transwell inserts (pore size, 8 μm, BD Biosciences—353182) and 12-well culture plates. To test migration towards defined chemokine gradients, lower chambers were loaded with 1.2 ml of SF DMEM/F-12-GlutaMAX medium with either mCcl5, mCxcl1, mCxcl10, mCxcl16 or a combination of Ccl5 and mCxcl16 (all 50 ng/ml, Peprotech). For tests of NMDA-damage, mice were sacrificed 24 hpi; rd10 mice were sacrificed at P18. Human retina were dissected and cultured for an initial 12 hours in Neurobasal A medium, as previously described. Afterwards, both mouse and human retina were cultured for 24 hours in SF DMEM/F-12-GlutaMAX and SF Neurobasal A (with or without 1 mM NMDA) respectively. 1.2 ml of the resulting conditioned medium were loaded in the lower chambers of the transwell. The upper chamber was loaded with 2×10^5 MSCs in SF medium. The medium used to resuspend MSCs was matched to the medium in the bottom chamber: either DMEM/F-12-GlutaMAX (to test migration towards medium conditioned by mouse retina) or Neurobasal A (to test migration towards medium conditioned by human retina). […]
(§2) Transwell plates were incubated for 1.5 hours at 37° C. […] For each insert, seven fields were imaged and analysed. Cells were automatically counted using a custom-made macro for the ImageJ software (US National Institutes of Health, Bethesda, Md., USA; http://rsb.info.nih.gov/ij/).

MSCs [2] = assay: Transwell chemotactic assay of MSCs with chemokine receptor antagonists, media conditioned by rd10 retina; assay type: cell-based, mouse; details: towards media conditioned by rd10 (P18) retina; vs vehicle DMSO; working concentrations of Table 2
Method: as §1, §2

migration of MSCs in the presence of receptor inhibitors (MSCs [2])	SMILES	migration of MSCs in the presence of receptor inhibitors (MSCs [1])
not affected	NS(=O)(=O)c1c(Cl)ccc(NC(=O)Nc2cccc(Cl)c2Cl)c1O [Cxcr2 inhibitor, SB 332235]	not affected
significantly reduced	COc1cc(C(=O)NC2C[C@H]3CCC[C@@H](C2)N3CC(=O)Nc2ccccc2Cl)cc(OC)c1OC (stereo partly shown) [Cxcr6 inhibitor, ML 339]	significantly reduced
